# Test results reported in US5939403A, “Keratan sulfate oligosaccharide fraction and pharmaceutical containing the same” (Seikagaku Corporation, priority 1994, dated 1999).
# What was measured:
# [1] = system: neutrophile of guinea pig; test: Inhibition of active oxygen (O2^-) generation in FMLP-stimulated neutrophile; format: cell-based, female Hartley guinea pigs
# Experimental: To female Hartley guinea pigs of five weeks old (purchased from Japan SLC), 20 ml of the 0.2% aqueous solution of glycogen (Type II; Oyster; Sigma) dissolved in saline which was previously sterilized with autoclave, was intraperitoneally administered. The guinea pigs were sacrificed by bleeding 16 hours after the administration, and 20 ml of the saline containing heparin at a concentration of 10 U/ml was intraperitoneally injected to recover the peritoneal exudate. Hereinafter all the operations were carried out under ice-water cooling condition except for incubation. The recovered exudate was centrifuged at 1,000 rpm for 10 minutes, the precipitate obtained was hemolyzed with purified water for 30 seconds, and returned into isotonicity with the Hanks' solution at double the concentration (not containing phenol red; Nissui Seiyaku), and further it was centrifuged at 1,000 rpm for 10 minutes. The precipitate obtained was suspended in the Hanks' solution and centrifuged and the operations were repeated once more to give the neutrophile.
# The collected neutrophile of the guinea pigs was suspended in the Hanks' solution, the number of leukocyte in the suspension was determined by a cytometer (System K-2000; Toa Iyo Denshi Co.), and the suspension diluted with the Hanks' solution to 2×10^6 cells/ml was used in the determination as the cell suspension. After mixing 1 ml of the cell suspension and 10 μl of the purified keratan sulfate oligosaccharide (keratan sulfate tetrasaccharide (I), the keratan sulfate pentasaccharide (II), or the keratan sulfate disaccharide (III)) prepared in Example 1 described above, and the mixture was preincubated at 37° C. for an hour. […]
# The supernatant obtained by the centrifugation was separated and the absorbance thereof was determined at 550 nm to estimate the quantity of reducing cytochrome c per 2×10^6 cells after the 10 minutes incubation. The quantity of reducing cytochrome c increases with the generation of active oxygen (O2^-). […]
# allergic conjunctivitis = test: TDI-induced allergic conjunctivitis model, eye dropping; format: in vivo, female Hartley guinea pigs; details: 6.0 mg/ml eye drop, comparison of oligosaccharides
# Experimental: A variety of the keratan sulfate oligosaccharide was dropped in the eyes of the guinea pigs subjected to the induction of allergic conjunctivitis to examine the effect thereof.
# Toluene diisocyanate (hereinafter referred to as TDI) was diluted with ethyl acetate to a concentration of 10%. To the bilateral vestibule of noses of 10 female Hartley guinea pigs of from about 900 to 1,000 g weight, the 10% TDI (10 μl/animal) obtained above was applied once a day for five days to prepare the TDI sensitization models. The PBS solution of the purified keratan sulfate tetrasaccharide (I) ([…]) which was prepared in Example 1 was dropped in the left eyes of the TDI sensitization models, while PBS was dropped in the right eyes as the control. The dose of dropping was one drop (48+4.6 μl (S.D.)) each from the eye dropper. After 10 minutes, 6.5 μl of 10% TDI was dropped to the both eyes to induce conjunctivitis. After five minutes standing, furthermore, the PBS solution of the keratan sulfate tetrasaccharide (I) ([…]) was dropped in the left eyes, and PBS was dropped in the right eyes. After 15 minutes, observation of the both eyes were carried out. The degree of conjunctivitis was evaluated regarding three items of hyperemia, edema and lacrimation into four grades such as point 0, +1, +2 and +3. In the figure, * represents that it has the significant difference with p<0.05 (wherein "p" means a level of significance by the .chi.^2 test).
# The PBS solution of the purified keratan sulfate disaccharide (III), the keratan sulfate tetrasaccharide (I), and the keratan sulfate pentasaccharide (II) (6.0 mg/ml, respectively)which were prepared in Example 1 described above as the test substances were dropped, respectively, in the left eyes of the TDI sensitization models of 10 animals a group each which were prepared in the same manner as in (1) described above, and PBS was dropped in the right eyes as the control. The degree of conjunctivitis was evaluated in the same manner as in (1) described above. In the figure, * represents that it has the significant difference with p<0.05 (wherein "p" means a level of significance by the .chi.^2 test).
# The PBS solution containing the purified keratan sulfate tetrasaccharide (I) which was prepared in Example 1 described above, at varieties of concentrations (6 mg/ml, 3 mg/ml, 1.5 mg/ml or 0.75 mg/ml) as the test substance, were dropped, respectively, in the left eyes of the TDI sensitization models of 10 animals a group each which were prepared in the same manner as in (1) described above, and PBS was dropped in the right eyes as the control. The degree of conjunctivitis was evaluated in the same manner as in (1) described above. In the figure, * represents that it has the significant differnce with p<0.05 (wherein "p" means a level of significance by the .chi.^2 test).
# papain-induced arthritis = test: Papain-induced unilateral arthritis model, intramuscular administration (volume of synovial fluid); format: in vivo, Japanese white rabbits (female); details: 0.5 mg/kg intramuscular, unilateral model; 10 rabbits per group
# Experimental: The anti-inflammatory effect of the keratan sulfate oligosaccharide with rabbits of the papain-induced arthritis model was examined using the volume of synovial fluid as an indication.
# Seven days after the injection, the blood was drawn from the auricular artery, and plasma containing heparin was separated. After drawing the blood, the rabbits were anatomized and the both knee joint were separated. The articular cavity was washed with 2 ml of saline three times to recover the synovial fluid. The calcium concentrations in the plasma and the recovered synovial fluid were determined, and the volume of synovial fluid was calculated from the following formula.
# Volume of Synovial Fluid (ul/articulation)=Amount of Calcium in Recovered
# Synovial Fluid (μg/articulation)/Concentration of Calcium in Plasma
# Into the articular cavity of left joint of Japanese white rabbits (female) of 3 kg weight, 150 μl of the saline solution of papain (1%) was injected, and the right joint was not treated to prepare the unilateral arthritis model. One day after injecting papain, 150 μl of the PBS solution of the purified keratan sulfate tetrasaccharide (I) (2%, 1%, and 0.5% solution; 1.0 mg/kg, 0.5 mg/kg, and 0.25 mg/kg, respectively) which was prepared in Example 1 was injected into the hip muscle of the left side (hereinafter referred to as "the keratan sulfate tetrasaccharide (I) administered group"). As the control, 150 μl of PBS was injected to the arthritis model instead of the PBS solution of the keratan sulfate tetrasaccharide (I) and hereinafter these rabbits are referred to as "the control group". And the normal rabbits not subjected to the papain injection (hereinafter referred to as "the normal group") were also examined in the same manner hereinafter. Seven days after the injection, the volume of synovial fluid was calculated in the same manner as in (1-1).
# The examination was performed in the same manner as in (1-3) except for using 150 μl of the PBS solution of the purified keratan sulfate tetrasaccharide (I), the keratan sulfate pentasaccharide (II), and the keratan sulfate disaccharide (III) (1% solution; 0.5 mg/kg) which were prepared in Example 1. In the figure, *, **, and *** represent that they have the significant difference with p<0.05, p<0.01, and p<0.001, respectively. And in each group, 10 rabbits were used for the examination.
substance,measurement,setting,value
NeuAc~Galβ1-4GlcNAc(6S)β1-3Gal(6S)β1-4GlcNAc(6S) [keratan sulfate pentasaccharide (II)],inhibitory function for generation of active oxygen (O2^-) (FIG. 10),[1],slightly observed
same,"degree of conjunctivitis: hyperemia, edema and lacrimation (FIG. 12)",allergic conjunctivitis,tended to show inhibition in all the items
same,"quantity of synovial fluid (FIG. 5, result in words)",papain-induced arthritis,significantly less than that in the control group
